Data: ChEMBL document CHEMBL2384977, “Synthesis and biological evaluation of novel styryl benzimidazole derivatives as probes for imaging of neurofibrillary tangles in Alzheimer's disease” (Bioorg Med Chem, 2013)

Legend:
Conditions in all cases: in vivo
[1] = tested on: Brain; assay: Ratio of drug level in ICR mouse brain at 2.6 to 3.3 MBq, iv measured at 2 mins to drug level in ICR mouse brain at 2.6 to 3.3 MBq, iv measured at 60 mins; type: ADME, organism-based
[2] = tested on: Brain; assay: Ratio of drug level in mouse brain measured at 2.5 mins to drug level in mouse brain measured at 20 mins; type: ADME, tissue-based
[3] = tested on: Brain; assay: Ratio of drug level in ICR mouse brain at 0.68 to 1.32 MBq, iv measured at 2 mins to drug level in ICR mouse brain at 0.68 to 1.32 MBq, iv measured at 60 mins; type: ADME, organism-based

Structure (SMILES): [11CH3]Nc1ccc(-c2ccc3ccccc3n2)cc1
- Ratio [1]: 5.38

Structure (SMILES): [18F]CCC1CCN(c2ccn3c(n2)nc2ccccc23)CC1
- Ratio [2]: 2.92

Structure (SMILES): Nc1ccc(-c2ccc3cc(OCC[18F])ccc3n2)cc1
- Ratio [3]: 1.83
